Tests used:
[1] = Blood-brain barrier penetration (brain tissue to plasma concentration ratio); assay type: in vivo; conditions: ratio of concentration in brain tissue to plasma; rats or mice, four hours after dosing
Description: Four hours after dosing, rats or mice were sacrificed, blood and brain tissue were collected and the concentration of the test compound was analyzed. Brain permeation is defined as the ratio of the concentration of the compound in the brain tissue to the concentration in the plasma. P-glycoprotein and BCRP (Breast Cancer Resistance Protein) are the blood-brain barrier efflux proteins, the P-glycoprotein substrate (Efflux ratio>1.5) and/or BCRP substrate (Efflux ratio>1.5) is out of the brain.

[2] = biological target: P-glycoprotein (Homo sapiens, UniProt P08183); test: P-glycoprotein efflux substrate; assay type: in vitro ADME; conditions: not told
P-glycoprotein, sequence (P08183 whole entry): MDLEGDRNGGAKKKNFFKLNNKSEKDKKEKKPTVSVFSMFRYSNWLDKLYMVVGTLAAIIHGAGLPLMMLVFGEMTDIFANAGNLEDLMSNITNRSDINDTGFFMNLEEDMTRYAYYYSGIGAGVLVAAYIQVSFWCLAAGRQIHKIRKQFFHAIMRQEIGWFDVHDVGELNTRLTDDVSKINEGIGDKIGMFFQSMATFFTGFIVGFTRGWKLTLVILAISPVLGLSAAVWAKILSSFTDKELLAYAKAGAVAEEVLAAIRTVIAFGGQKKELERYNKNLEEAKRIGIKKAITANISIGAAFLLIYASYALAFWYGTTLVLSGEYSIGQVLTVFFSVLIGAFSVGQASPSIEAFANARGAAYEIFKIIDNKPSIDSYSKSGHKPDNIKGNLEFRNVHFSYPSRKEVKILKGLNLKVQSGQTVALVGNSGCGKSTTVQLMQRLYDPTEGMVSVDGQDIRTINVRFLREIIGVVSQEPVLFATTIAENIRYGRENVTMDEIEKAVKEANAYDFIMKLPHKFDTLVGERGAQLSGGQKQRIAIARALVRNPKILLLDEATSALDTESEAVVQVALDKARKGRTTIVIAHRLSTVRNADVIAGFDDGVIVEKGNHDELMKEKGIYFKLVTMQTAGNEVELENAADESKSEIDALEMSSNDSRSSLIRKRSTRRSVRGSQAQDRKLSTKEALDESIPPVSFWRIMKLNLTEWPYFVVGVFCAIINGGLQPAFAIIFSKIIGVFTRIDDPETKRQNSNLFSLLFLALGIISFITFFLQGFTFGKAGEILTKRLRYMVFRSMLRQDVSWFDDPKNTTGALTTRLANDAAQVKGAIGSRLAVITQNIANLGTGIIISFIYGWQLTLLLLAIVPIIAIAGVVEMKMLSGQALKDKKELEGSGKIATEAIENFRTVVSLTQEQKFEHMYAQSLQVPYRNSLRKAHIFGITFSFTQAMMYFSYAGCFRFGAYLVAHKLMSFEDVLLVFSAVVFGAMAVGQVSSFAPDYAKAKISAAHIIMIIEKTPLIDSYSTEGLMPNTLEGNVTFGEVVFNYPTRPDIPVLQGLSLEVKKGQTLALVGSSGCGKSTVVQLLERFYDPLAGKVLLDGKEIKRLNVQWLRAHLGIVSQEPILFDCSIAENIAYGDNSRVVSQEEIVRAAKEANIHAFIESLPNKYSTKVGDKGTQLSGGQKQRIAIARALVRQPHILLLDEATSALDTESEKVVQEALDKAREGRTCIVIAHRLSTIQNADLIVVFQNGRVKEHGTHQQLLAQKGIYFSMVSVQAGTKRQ

[3] = biological target: T1, BCRP (Homo sapiens, UniProt Q9UNQ0); test: BCRP efflux substrate; assay type: in vitro ADME; conditions: not told
T1 sequence (Q9UNQ0 1-655): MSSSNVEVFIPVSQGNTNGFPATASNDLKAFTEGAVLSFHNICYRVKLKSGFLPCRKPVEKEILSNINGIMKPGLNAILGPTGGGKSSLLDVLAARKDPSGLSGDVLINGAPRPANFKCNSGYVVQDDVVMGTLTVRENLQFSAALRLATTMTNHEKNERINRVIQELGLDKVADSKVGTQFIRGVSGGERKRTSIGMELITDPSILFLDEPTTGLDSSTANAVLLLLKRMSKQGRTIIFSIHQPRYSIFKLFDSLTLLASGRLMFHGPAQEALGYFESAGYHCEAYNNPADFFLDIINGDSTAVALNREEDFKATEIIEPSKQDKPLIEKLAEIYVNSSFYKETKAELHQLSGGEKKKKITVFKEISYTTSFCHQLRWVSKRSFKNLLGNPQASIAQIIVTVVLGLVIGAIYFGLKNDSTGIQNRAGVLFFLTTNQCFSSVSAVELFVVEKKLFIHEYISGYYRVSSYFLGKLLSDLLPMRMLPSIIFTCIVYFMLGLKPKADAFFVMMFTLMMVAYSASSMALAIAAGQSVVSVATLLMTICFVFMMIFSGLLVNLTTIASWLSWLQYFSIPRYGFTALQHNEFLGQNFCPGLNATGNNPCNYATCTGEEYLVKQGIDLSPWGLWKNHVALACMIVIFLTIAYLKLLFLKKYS

Structure (SMILES)	Kp at 4 h [1]	efflux ratio [2]	efflux ratio [3]
CN1CCC(n2c(=O)n(C)c3cnc4ccc(-c5ccc(N6CC(N(C)C)C6)nc5)cc4c32)C(F)(F)C1 (racemic) [Compound 11, (R/S)-1-(3,3-difluoro-1-methylpiperidin-4-yl)-8-(6-(3-(dimethylamino)azetidin-1-yl)pyridin-3-yl)-3-methyl-1,3-dihydro-2H-imidazo[4,5-c]quinolin-2-one]	> 0.3	< 1	< 1
CN1CC[C@@H](n2c(=O)n(C)c3cnc4ccc(-c5ccc(N6C[C@H]7[C@@H]6CCN7C)nc5)cc4c32)C(F)(F)C1 [Compound 27]	> 0.3	< 1	< 1
CN1CCC(n2c(=O)n(C)c3cnc4ccc(-c5ccc(N6CC7C6CCN7C)nc5)cc4c32)C(F)(F)C1 (racemic) [Compound 13, (R/S)-1-(3,3-difluoro-1-methylpiperidin-4-yl)-3-methyl-8-(6-((1R,5R/1S,5S)-(2-methyl-2,6-diazabicyclo[3.2.0]heptan-6-yl)pyridin-3-yl)-1,3-dihydro-2H-imidazo[4,5-c]quinolin-2-one]	> 0.3	< 1	< 1
CN1CC[C@H](n2c(=O)n(C)c3cnc4ccc(-c5ccc(N6CC(N(C)C)C6)nc5)cc4c32)C(F)(F)C1 [Compound 38, (S)-1-(3,3-difluoro-1-methylpiperidin-4-yl)-8-(6-(3-(dimethylamino)azetidin-1-yl)pyridin-3-yl)-3-methyl-1,3-dihydro-2H-imidazo[4,5-c]quinolin-2-one]	> 0.3	< 1	< 1
CN1CC[C@H](n2c(=O)n(C)c3cnc4ccc(-c5ccc(OC6CC6)nc5)cc4c32)C(F)(F)C1 [Compound 37, (S)-8-(6-cyclopropoxypyridin-3-yl)-1-(3,3-difluoro-1-methylpiperidin-4-yl)-3-methyl-1,3-dihydro-2H-imidazo[4,5-c]quinolin-2-one]	> 0.3	< 1	< 1
CN1CC[C@@H](n2c(=O)n(C)c3cnc4ccc(-c5ccc(OC6CC6)nc5)cc4c32)C(F)(F)C1 [Compound 23, (R)-8-(6-cyclopropoxypyridin-3-yl)-1-(3,3-difluoro-1-methylpiperidin-4-yl)-3-methyl-1,3-dihydro-2H-imidazo[4,5-c]quinolin-2-one]	> 0.3	< 1	< 1
